Values after ≈ are worked out from the molar mass of the structure shown.
Legend:
B16 melanoma cells = test: In vitro cytotoxicity against B16 melanoma cells (neutral red staining); type: cell-based; conditions: 72 hours at 37°C, colorimetric at 540 nm, IC₅₀ higher than 100 µg/ml = lack of cytotoxic activity
Description: Cytotoxicity of compounds of the present invention was studied using B16 melanoma cells. B16 melanoma cells were grown to the logarithmic phase in the enriched Eagle minimum essential medium supplemented with fetal calf serum (10%) and kanamycin (60 mcg/ml). The tumor cells were harvested and implanted into wells of the 96-well microtiter plate with test materials at the inoculum size of 3.0 x 10⁴ cells/ml. They were incubated at 37°C in humidified atmosphere of 5% CO₂ and 95% air for 72 hours. The cytotoxic activity against the above cell line was determined colorimetrically at 540 nm after staining viable cells with neutral red and is reported in terms of the concentration that inhibits 50% of cell growth (IC₅₀). IC₅₀ values of higher than 100 µg/ml are generally considered as indicating lack of cytotoxic activity.

P388 leukemia = test: Antitumor activity against murine transplantable P388 leukemia (survival); type: in vivo, CDF₁ mice; conditions: maximum % T/C only, at the dose giving the maximum effect (dose column of Table I); single intraperitoneal dose on day 1; observed 45 days; 10⁶ P388 cells ip; % T/C of 125 or greater = significant
Description: Representative compounds of the present invention were evalnated for anti tumor activity against murine transplantable P388 leukemia. Five-week old female CDF₁ mice were inoculated intraperitoneally with 0.4 ml of diluted ascitic fluid containing 10⁶ lymphocytic leukemia P388 cells. […] The percent increase of median survival time (MST) of treated animals over that of untreated control animals was determined and reported as % T/C. Compounds showing % T/C values of 125 or greater are considered to have significant antitumor activity. Table I presents the results of the in vivo evaluation; only the maximum % T/C and the dose giving the maximum effects are reported.

[1] = biological target: T1, prostatic acid phosphatase (Homo sapiens, UniProt P15309); conditions: Seligman et al, Cancer Chemotherapy Reports Part I, 1975; cited from earlier work
T1 sequence (P15309 33-386): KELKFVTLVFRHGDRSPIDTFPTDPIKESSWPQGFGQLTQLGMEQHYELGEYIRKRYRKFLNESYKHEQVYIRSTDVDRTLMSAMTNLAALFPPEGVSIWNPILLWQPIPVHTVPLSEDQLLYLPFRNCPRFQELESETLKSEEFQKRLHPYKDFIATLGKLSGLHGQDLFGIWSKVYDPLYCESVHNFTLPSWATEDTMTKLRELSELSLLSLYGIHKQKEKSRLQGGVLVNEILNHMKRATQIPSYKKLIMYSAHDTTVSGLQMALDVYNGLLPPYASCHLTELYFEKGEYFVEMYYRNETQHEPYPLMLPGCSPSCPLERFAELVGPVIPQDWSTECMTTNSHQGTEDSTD

[2] = Seligman et al, Cancer Chemotherapy Reports Part I, 1975; cited from earlier work

| Compound | IC₅₀ (B16 melanoma cells) [µg/mL] | %T/C of MST (P388 leukemia) [%] | IC50 (B16 melanoma cells; Mus musculus) [µg/mL] | hydrolysis by prostatic acid phosphatase [1] | toxicity over the parent podophyllotoxin [2] |
| --- | --- | --- | --- | --- | --- |
| etoposide 3˝-tosylate [Compound XVII] | 0.07 | 195 | – | – | – |
| etoposide 2˝-tosylate [Compound XVIII] | 5.4 | 115 | – | – | – |
| etoposide 2˝,3˝-ditosylate [Compound XIX] | 30 | 100 | – | – | – |
| etoposide 3˝-diphenyl phosphate [XXVI] | 8.0 | 130 | – | – | – |
| COc1cc([C@@H]2c3cc4c(cc3[C@@H](O[C@@H]3O[C@@H]5CO[C@@H](C)O[C@H]5[C@H](O)[C@H]3O)[C@H]3COC(=O)[C@H]23)OCO4)cc(OC)c1O [Etoposide, etoposide, reference compound] | – | 250 | 0.21 (≈ 0.357 µM) | – | – |
| sodium bis(etoposide-3˝-)phosphate [Compound XIII] | 37 | 125 | – | – | – |
| etoposide 2˝-mesylate [Compound XXIV] | 29 | 130 | – | – | – |
| etoposide 3˝-mesylate [Compound XXIII] | 0.32 | 175 | – | – | – |
| podophyllotoxin phosphate disodium salt | – | – | – | not hydrolyzed | did not show reduced toxicity |
| disodium etoposide 2˝ -phosphate [Compound XII] | 20 | 120 | – | – | – |
| disodium etoposide 3˝-phosphate [Compound XI] | 2.2 | 185 | – | – | – |
